Measured values published in patent US20150328245A1, “Agents for Eliminating Tumour-Initiating Cells” (priority 2012, published 2015).
pIC50: −log10 of the molar value. Values joined by “and” are separate entries in the source; they are usually repeats but may differ in a detail not shown here. Equal entries are not always repeated.

Columns and labels:
Type in all cases: cell-based
[1] = system: prostate cancer cells PC3; test: In vitro 3D primary sphere forming stem cell assay
Procedure: (§1) This assay measures the ability of cancer stem cells to form spheres in a serum free media where the spheres are in a suspended form. Through this assay we evaluated the potency of the compounds of the invention to kill cancer stem cells in comparison with the known chemotherapeutic agent Cisplatin.
(§2) An exemplary procedure for the assay follows. Cells were grown in three dimensions on a plastic substrate, harvested in suspension in serum-free media, then the cells in the sample were trypsinized and a single cell suspension was formed by passing through a cell strainer. The cells were diluted according to the predetermined plating efficiency for the cell line being studied by suspending the cells in stem cell culture medium. 100 uL of this suspension was added into each well of a 96 well suspension plate, and the plate was incubated at 37 degrees Celsius in 5% CO2 atmosphere for 24 hours, then 2 uL of appropriate concentrations of the compounds of the invention and cisplatin were added into each respective well along with 100 uL of stem cell culture medium, and the plates were incubated at 37 degrees Celsius under 5% CO2 atmosphere for 72 hours. 2.5 uL of the compounds of the invention and cisplatin were added to each respective well along with 50 uL of stem cell culture medium and then the plates were incubated at 37 degrees Celsius under 5% CO2 atmosphere for 72 hours. 3 uL of appropriate concentrations of the compounds of the invention and cisplatin were added to each respective well along with 50 uL of stem cell culture medium and then the plates were incubated at 37 degrees Celsius under 5% CO2 atmosphere for 72 hours, then the spheres formed were observed under a microscope then counted and scored by size.
(§3) Results of the in vitro 3D sphere forming stem cell assay are set forth in a tabular manner. The number in each box is the total number of spheres formed in the presence of either cisplatin or compound I-2 or compound I-3 at each drug concentration. GC refers to a growth control performed in the absence of drug or solvent (DMSO). GCD refers to a growth control performed in the absence of drug, but in the presence of DMSO.

[2] = system: prostate cancer cells LNCaP; test: In vitro 3D primary sphere forming stem cell assay
Procedure: as §1, §2, §3

[3] = system: prostate cancer cells DU145; test: In vitro 3D primary sphere forming stem cell assay
Procedure: as §1, §2, §3

[4] = system: breast cancer cells MDA MB 231; test: In vitro 3D primary sphere forming stem cell assay
Procedure: as §1, §2, §3

[5] = system: breast cancer cells MCF-7; test: In vitro 3D primary sphere forming stem cell assay
Procedure: as §1, §2, §3

[6] = system: breast cancer cells T47D; test: In vitro 3D primary sphere forming stem cell assay
Procedure: as §1, §2, §3

[7] = system: L 929; test: In vitro colorimetric cell death assay (MTT); conditions: L 929, MTT, 48 hours; read-out: IC 50
Procedure: (§4) It's an in vitro colorimetric assay for assessing cell viability where the cells are grown in Two-dimensional surface.
(§5) An exemplary procedure for the assay follows. Cancer cells and normal cells were plated in a 96 well plate as per predetermined plating efficiency. The plate was incubated for 24 hours in a 5% CO2 atmosphere at 37 degrees Celsius, a range of concentrations of the compounds I-1, I-2 and I-3 as well as cisplatin (known chemotherapeutic agents) were added to the separate wells, the plate was incubated further for 48 hours in a 5% CO2 atmosphere, the plate was centrifuged twice at 3000 rpm for 3 minutes, the supernatant fluid was discarded, 100 uL of 0.5 mg/mL MTT solution was added and the plate was incubated for 4 hours in a 5% CO2 atmosphere at 37 degrees Celsius. The plate was then centrifuged twice at 3000 rpm for 3 minutes, supernatant, was aspirated very carefully, 200 uL DMSO was added to each well to solubilize MTT crystals and mixed well by shaking the plate, the plate was incubated for 10 minutes in a 5% CO2 atmosphere at 37 degrees Celsius, the plate placed on the shaker of an ELISA plate reader and the absorbance at 570 nm was measured, then the percentage of viable cells remaining was calculated by first subtracting the background absorbance then comparing to the absorbance of a non-drug-treated cell sample, and the results were plotted on a graph to determine the IC50 for the compounds and cisplatin.

[8] = system: DU145; test: In vitro colorimetric cell death assay (MTT); conditions: DU145, MTT, 48 hours; read-out: IC 50
Procedure: as §4, §5

[9] = system: MDAMB231; test: In vitro colorimetric cell death assay (MTT); conditions: 48 hours
Procedure: as §4, §5

[10] = system: LNCaP; test: In vitro colorimetric cell death assay (MTT); conditions: 48 hours
Procedure: as §4, §5

[11] = system: MCF-7; test: In vitro colorimetric cell death assay (MTT); conditions: MCF-7, MTT, 48 hours
Procedure: as §4, §5

[12] = system: MCF10A (normal breast cell line); test: In vitro colorimetric cell death assay (MTT); conditions: 48 hours, read-out: IC 50
Procedure: as §4, §5

[13] = system: T47D; test: In vitro colorimetric cell death assay (MTT); conditions: 48 hours
Procedure: as §4, §5

[14] = system: PC3; test: In vitro colorimetric cell death assay (MTT); conditions: 48 hours
Procedure: as §4, §5

[15] = system: DU145; test: In vitro soft agar colony forming growth assay; conditions: one week
Procedure: (§6) The Soft Agar Assay for Colony Formation is considered the most stringent assay for detecting malignant transformation of cells. In this assay the cells are cultured in medium with low percentage of agar.
(§7) An exemplary procedure for the assay follows.

[16] = system: L929; test: In vitro soft agar colony forming growth assay; conditions: L929, soft agar, one week; read-out: IC 50
Procedure: as §6, §7

[17] = system: HeLa; test: In vitro soft agar colony forming growth assay; conditions: soft agar, one week, read-out: IC 50
Procedure: as §6, §7

[18] = system: LNCaP; test: In vitro soft agar colony forming growth assay; conditions: one week
Procedure: as §6, §7

[19] = system: MCF-7; test: In vitro soft agar colony forming growth assay; conditions: MCF-7, soft agar, one week
Procedure: as §6, §7

[20] = system: T47D; test: In vitro soft agar colony forming growth assay; conditions: one week
Procedure: as §6, §7

[21] = system: PC3; test: In vitro soft agar colony forming growth assay; conditions: one week
Procedure: as §6, §7

In the case of `N.N.[Cl][Pt][Cl]` [Cisplatin, cisplatin, reference compound], the “# of 3D Primary Spheres Formed of Cells PC3 (±SD)” value ([1]; final conc. 0.125 μM) was 125(±7), the “# of 3D Primary Spheres Formed of Cells PC3 (±SD)” value ([1]; final conc. 1.25 μM) was 109(±12) and the “# of 3D Primary Spheres Formed of Cells PC3 (±SD)” value ([1]; final conc. 12.5 μM) was 80(±6). For the same compound, the “# of 3D Primary Spheres Formed of Cells PC3 (±SD)” value ([1]; final conc. 125 μM) was 67(±5), the “# of 3D Primary Spheres Formed of Cells PC3 (±SD)” value ([1]; final conc. 1250 μM) was 55(±5) and the “# of 3D Primary Spheres Formed of Cells LNCaP (±SD)” value ([2]; final conc. 0.125 μM) was 142(±12). For the same compound, the “# of 3D Primary Spheres Formed of Cells LNCaP (±SD)” value ([2]; final conc. 1.25 μM) was 144(±8), the “# of 3D Primary Spheres Formed of Cells LNCaP (±SD)” value ([2]; final conc. 12.5 μM) was 108(±10) and the “# of 3D Primary Spheres Formed of Cells LNCaP (±SD)” value ([2]; final conc. 125 μM) was 54(±7). For the same compound, the “# of 3D Primary Spheres Formed of Cells LNCaP (±SD)” value ([2]; final conc. 1250 μM) was 9(±2), the “# of 3D Primary Spheres Formed of Cells DU145 (±SD)” value ([3]; final conc. 0.125 μM) was 84(±4) and the “# of 3D Primary Spheres Formed of Cells DU145 (±SD)” value ([3]; final conc. 1.25 μM) was 70(±7). The “# of 3D Primary Spheres Formed of Cells DU145 (±SD)” value ([3]; final conc. 12.5 μM) was 48(±6), the “# of 3D Primary Spheres Formed of Cells DU145 (±SD)” value ([3]; final conc. 125 μM) was 35(±4) and the “# of 3D Primary Spheres Formed of Cells DU145 (±SD)” value ([3]; final conc. 1250 μM) was 11(±3). For the same compound, the “# of 3D Primary Spheres Formed of Cells MDA MB231 (±SD)” value ([4]; final conc. 0.125 μM) was 124(±7) and 87(±5), the “# of 3D Primary Spheres Formed of Cells MDA MB231 (±SD)” value ([4]; final conc. 1.25 μM) was 113(±11) and 79(±2) and the “# of 3D Primary Spheres Formed of Cells MDA MB231 (±SD)” value ([4]; final conc. 12.5 μM) was 112(±18) and 78(±5). For the same compound, the “# of 3D Primary Spheres Formed of Cells MCF-7 (±SD)” value ([5]; final conc. 0.125 μM) was 76(±5), the “# of 3D Primary Spheres Formed of Cells MCF-7 (±SD)” value ([5]; final conc. 1.25 μM) was 77(±5) and the “# of 3D Primary Spheres Formed of Cells MCF-7 (±SD)” value ([5]; final conc. 12.5 μM) was 68(±7). The “# of 3D Primary Spheres Formed of Cells MCF-7 (±SD)” value ([5]; final conc. 125 μM) was 61(±7), the “# of 3D Primary Spheres Formed of Cells MCF-7 (±SD)” value ([5]; final conc. 1250 μM) was 37(±8) and the “# of 3D Primary Spheres Formed of Cells T47D (±SD)” value ([6]; final conc. 0.125 μM) was 105(±10). For the same compound, the “# of 3D Primary Spheres Formed of Cells T47D (±SD)” value ([6]; final conc. 1.25 μM) was 100(±7), the “# of 3D Primary Spheres Formed of Cells T47D (±SD)” value ([6]; final conc. 12.5 μM) was 76(±25) and the “# of 3D Primary Spheres Formed of Cells T47D (±SD)” value ([6]; final conc. 125 μM) was 51(±5). The “# of 3D Primary Spheres Formed of Cells T47D (±SD)” value ([6]; final conc. 1250 μM) was 0(±0), the pIC50 [7] was 4.33 and the pIC50 [8] was 4.25. It also gave a pIC50 [9] of 4.08, a pIC50 [10] of 4.19 and a pIC50 [11] of 5.32. For the same compound, the pIC50 [12] was 4.44, the pIC50 [13] was 4.29 and the pIC50 [14] was 4.40. The pIC50 [15] was 4.25, the pIC50 [16] was 5.06 and the pIC50 [17] was 4.41. It also gave a pIC50 [18] of 4.19, a pIC50 [19] of 4.43 and a pIC50 [20] of 4.29. It also gave a pIC50 [21] of 4.40.
